Columns and labels:
adult human OPCs = assay: Differentiation assay, adult human OPCs; type: cell-based
Experimental: Human brain samples were obtained from adult patients of temporal lobe epilepsy resistant to pharmacological treatment or traumatic brain injury; they underwent surgical treatment by the Neurosurgery Service at the Hospital Universitario de La Princesa (Madrid, Spain) and Hospital 12 de Octubre (Madrid, Spain). All tissue samples were obtained under protocols approved by the Research Ethics Committee of Toledo (Spain) review boards. All were conducted in accordance with the Helsinki Declaration and were approved by the Research Ethics Committee of Toledo (Spain). All patients provided informed consent prepared under the guidelines of the Research Ethics Committee at their respective hospital in Madrid (Spain).
For cells obtained from human biopsies, the same protocol was used except that papain solution was used 1:2.5 in HBSS for 10 minutes for meningeal disintegration and 1:10 in HBSS for 15 minutes for the tissue digestion, 25 cm[2] flasks were used, the medium was supplemented with 10 ng/ml of human PDGF-AA (Millipore) for 2 weeks and then incubated for 2 more weeks without growth factors before shaking and the shaking was carried out at 230 rpm instead of 250 rpm.
Purified OPCs were placed on coverslips coated with poly-L-lysine and laminin in 24-well tissue culture dishes at a density of 2 × 10^4 cells/well. To promote differentiation, the cells were maintained in the differentiation medium (described above) and PDE7-GSK3 or GSK3 inhibitors (VP3.15 or TDZD8; 1 μM) were added to the culture medium. Different controls were used for the dual or single inhibitors due to the active substance being dissolved in differing amounts of DMSO. After 5, 7 and 10 DIV the cells were fixed with 4% PFA for further immunocytochemical analysis. Anti-CNPase antibodies (1:200;Covance; Cat#SMI-91R), anti-MBP antibodies (1:200; Serotec; Cat#MCA4095) for detecting oligodendrocytes and anti-Olig2 antibodies (1:250; Millipore; Cat#AB9610) as a marker for all oligodendroglial stages were used. Ten random fluorescence digital images were taken in each coverslip with a DFC480 FX digital camera (Leica) coupled to a Leica DM5000 B microscope for quantification. Data were expressed as a mean ratio of differentiated oligodendrocytes (CNPase^+-Olig2^+ double positive cells) with respect to total Olig2^+ cells ± SEM or percentage of CNPase^+ cells respect to control ± SEM, in at least three independent experiments, except with human samples (two independent experiments).

OPCs from P0 mice = assay: Proliferation assay (BrdU incorporation); type: cell-based, mouse; conditions: murine P0 OPCs, 1 μM, 72 h
Experimental: We isolated OPCs, as previously described. Briefly, a stock papain solution was prepared containing ([…]; Worthington Biochemical), L-cysteine (0.2 mg/ml; Sigma), and EDTA (0.2 mg/ml; Sigma) in Hank’s Balanced Salt Solution (HBSS; Invitrogen) without Ca^2+ and Mg[2]. Then, the cerebral cortices of P0 CD1 mice were dissected out and placed for 5 minutes at 37 °C in a medium containing the stock papain solution in HBSS with Ca^2+ and Mg^2+ (1:10; Invitrogen) in order to easily remove the meninges. […] The resulting enriched oligodendrocyte progenitor cell suspension was counted and seeded.
OPCs were placed on coverslips coated with poly-L-lysine (Sigma) and laminin (Sigma; 2 × 10^4 cells/well) and they were incubated with the inhibitors (VP3.15 or TDZD8; 1 μM) in the serum free medium described above. After 42 h in culture, BrdU (50 μM; Sigma) was added for 6 h and after a total of 72 h in culture, the cells were fixed and BrdU incorporation was detected by immunocytochemistry (1:20; G3G4, HybridomaBank) combined with the detection of the oligodendroglial marker Olig2 (1:250; Millipore; Cat#AB9610). […]

[1] = system: cerebellar slices demyelinated with LPC; assay: Ex vivo remyelination in cerebellar slice cultures demyelinated with LPC; type: cell-based, CD1 P7 mice; conditions: 5 μM, 3 days post lesion (3DPL)
Experimental: The protocol used was modified from previously described. CD1 P7 mice were decapitated, and their cerebella were dissected into ice-cold HBSS (Invitrogen). 300 μm sagittal slices of cerebellum were cut using a McIllwain tissue chopper, placed on Millicell-CM organotypic culture inserts (3 slices per insert; Millipore) in a medium containing HBSS:BME: horse serum (1:2:1, Invitrogen), 28 mM D (+) - glucose (Normapur), […] L-Glutamine (Invitrogen) and 100 U/mL penicillin, 0.1 mg/mL streptomycin and 0.25 μg/ml Amphotericin B antibiotic anti-mycotic solution (Sigma) and maintained at 5% CO2 and 37 °C. Medium was changed every two days, and after 7 days in culture, demyelination was induced by addition of 0.5 mg/ml LPC (Sigma) to the medium for 15 h. After that, slices were treated with fresh medium containing PDE7-GSK3 or GSK3 inhibitors (VP1.15, VP3.15 or TDZD8; 5 μM). Cultures were maintained for 1 or 3 days post lesion (DPL), and then fixed for 40 minutes and immunostained with anti-MBP antibodies (myelin basic protein –as a marker of myelin; 1:200; Serotec; Cat#MCA4095) and anti-neurofilament antibody (as a marker of axons; 1:200; Abcam; Cat#ab8135). Fluorescence images were taken on a confocal SP5 resonant scanner (Leica Microsystems) at 1μm intervals in white matter areas at x40 magnification. The photographs were merged and co-localisation of both markers was quantified with Image J software using the colocalization highlighter plugin. This measurement was related to the area occupied by axons (neurofilament staining) and normalized with control values showing the data as the mean normalized myelination index ± SEM. Quantification was made in at least three independent experiments.

c1ccc(-c2n/c(=N/CCN3CCOCC3)sn2-c2ccccc2)cc1 [VP3.15]
number of CNPase+-Olig2+ cells vs control (differentiation) (adult human OPCs; adult human OPCs, 1 μM, 5 DIV): significantly increased
number of primary cytoplasmic processes (adult human OPCs; adult human oligodendrocytes, control 2.9 ± 0.21, p = 0.72): 2.75 ± 0.20
number of cytoplasmic subprocesses (adult human OPCs; adult human oligodendrocytes, control 4.3 ± 0.2, p = 0.83): 4.8 ± 0.43
OPC proliferation (BrdU+-Olig2+ cells) (OPCs from P0 mice): no changes
remyelination (normalized myelination index) [1]: increased
